From PubChem BioAssay (NCI)
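Exposure lasted 48 hours, with cells grown in 96-well plates and compounds tested at five concentrations. The concentration for full growth arrest is given as TGI.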

Experiments:
Assay in all cases: NCI tumour cell line growth inhibition, 48 h
[1] = test system: XF 498 CNS
[2] = test system: DLD-1 colon
[3] = test system: KM20L2 colon
[4] = test system: DMS 273 small cell lung
[5] = test system: M19-MEL melanoma
[6] = test system: T-47D breast
[7] = test system: DU-145 prostate
[8] = test system: BT-549 breast
[9] = test system: MDA-MB-435
[10] = test system: HS 578T breast
[11] = test system: PC-3 prostate
[12] = test system: MDA-MB-231 breast

Row | Structure (SMILES) | TGI [1] | TGI [2] | TGI [3] | TGI [4] | TGI [5] | TGI [6] | TGI [7] | TGI [8] | TGI [9] | TGI [10] | TGI [11] | TGI [12]
1 | C[Si](C)(C)c1ccc(-c2sc(-c3ccc([Si](C)(C)C)s3)c3c2C[Si]2(C3)Cc3c(-c4ccc([Si](C)(C)C)s4)sc(-c4ccc([Si](C)(C)C)s4)c3C2)s1 | > 100 µM | > 100 µM | > 100 µM | > 100 µM | > 100 µM | – | – | – | – | – | – | –
2 | Cc1ccc(N2C(=O)C3C=CC(n4[nH]c(=O)n(Cc5ccccc5)c4=O)CC3C2=O)cc1 (configuration not stated) | > 100 µM | > 100 µM | > 100 µM | > 100 µM | > 100 µM | – | – | – | – | – | – | –
3 | O=S1(=O)OCCOS(=O)(=O)C1Cc1ccccc1 | > 100 µM | > 100 µM | > 100 µM | > 100 µM | > 100 µM | – | – | – | – | – | – | –
4 | COC(=O)C1=C(c2cc(OC)c(OC)c(OC)c2)OC(c2ccc(OC)c(OC)c2)C1 (configuration not stated) | > 100 µM | > 100 µM | > 100 µM | > 100 µM | > 100 µM | – | – | – | – | – | – | –
5 | CC(=O)C1C(=O)C(=O)N(c2ccccc2C(C)C)C1=O (configuration not stated) | > 100 µM | – | > 100 µM | – | > 100 µM | – | – | – | – | – | – | –
6 | COc1ccc(OC)c2c1C(=O)C1CC1(Br)C2=O (configuration not stated) | > 100 µM | > 100 µM | > 100 µM | > 100 µM | > 100 µM | – | – | – | – | – | – | –
7 | COC(=O)CCC(NC(=S)N/N=C/c1ccco1)C(=O)OC (configuration not stated) | > 100 µM | > 100 µM | > 100 µM | > 100 µM | > 100 µM | – | – | – | – | – | – | –
8 | COc1c2c(nc3ccccc13)-c1cc3c(c(=O)n1C2)COC(=O)C3(O)CC(=O)N1CCOCC1 (configuration not stated) | 33.9 µM | > 100 µM | > 100 µM | 12.4 µM | 44.8 µM | 72.3 µM | 17.7 µM | > 53.1 µM | 76.9 µM | > 88.8 µM | > 100 µM | > 100 µM
9 | CCOC(=O)NC(=O)c1cn(CCN2CCN(c3ncnc4nc[nH]c34)CC2)c(=O)[nH]c1=O | > 100 µM | > 100 µM | > 100 µM | – | > 100 µM | – | – | – | – | – | – | –
10 | C[C@]12CCC3[C@@H](CC[C@@H]4c5nonc5CC[C@]34C)C1C/C(=N/O)C2=O (some centres not stated) | 40.4 µM | – | > 100 µM | > 100 µM | > 100 µM | – | – | – | – | – | – | –
11 | Cc1[nH]c2ccccc2c1C1Cc2ccccc2N1C(=O)/C=C/C(=O)O (configuration not stated) | > 100 µM | > 100 µM | > 100 µM | > 100 µM | > 100 µM | – | – | – | – | – | – | –
12 | C/C(CC(=O)Nc1ccc(Cl)cc1)=N\NC(N)=S | > 100 µM | > 100 µM | > 100 µM | > 100 µM | > 100 µM | – | – | – | – | – | – | –
13 | O=C(c1ccccc1)c1cccc(C(=O)c2ccccc2)c1 | > 100 µM | > 100 µM | – | > 100 µM | > 100 µM | – | – | – | – | – | – | –
14 | CN(/N=C/c1cccc2cccnc12)c1ccccc1 | > 100 µM | > 100 µM | > 100 µM | > 100 µM | > 100 µM | – | – | – | – | – | – | –
15 | COC(=O)c1cc(Cl)ccc1NC(=O)c1ccc([N+](=O)[O-])cc1 | 35.9 µM | > 100 µM | 76.8 µM | 77.3 µM | > 100 µM | – | – | – | – | – | – | –
16 | O=C1CC(S(=O)(=O)O)C=C1Nc1cccc(Cl)c1 (configuration not stated) | > 100 µM | > 100 µM | > 100 µM | > 100 µM | > 100 µM | – | – | – | – | – | – | –
17 | CN1c2ccccc2N(C)C23N(C)c4ccccc4N(C)C12N(C)c1ccccc1N3C (configuration not stated) | > 100 µM | > 100 µM | > 100 µM | > 100 µM | > 100 µM | – | – | – | – | – | – | –
18 | O=CC1CCCc2ccccc21 (configuration not stated) | > 100 µM | > 63.8 µM | > 100 µM | > 100 µM | > 100 µM | – | – | – | – | – | – | –
19 | O=c1c2ccccc2nc(-c2ccccc2)n1NC1OC(CO)C(O)C(O)C1O (configuration not stated) | > 100 µM | > 100 µM | > 100 µM | > 100 µM | > 100 µM | – | – | – | – | – | – | –
20 | COc1cc(C2C(Cl)C(=O)N2NC(=O)c2ccc(N)cc2)ccc1O (configuration not stated) | 83.6 µM | > 100 µM | > 100 µM | > 100 µM | > 100 µM | – | – | – | – | – | – | –
21 | CC1=C2C(=CC(C)(C)C2O)C(=O)C(C)(O)C12CC2 (configuration not stated) | 0.0309 µM | 0.0447 µM | 0.0522 µM | 0.025 µM | 0.0861 µM | – | – | – | – | – | – | –
22 | Cc1cccc(C(C)C)c1NC(=O)CC1C(=O)Nc2ccccc2S1(=O)=O (configuration not stated) | > 59.9 µM | > 45.6 µM | 51.5 µM | 20.5 µM | > 57.4 µM | – | – | – | – | – | – | –
23 | CCOC(=O)C(=Cc1cccnc1C)C(=O)OCC | 25.6 µM | 47.4 µM | 10.7 µM | 14 µM | 22.3 µM | – | – | – | – | – | – | –
24 | COc1ccc(OC)c(NC(=O)CCC/C(CC(=O)c2ccc(O)c(OC)c2)=N\Nc2ccc([N+](=O)[O-])cc2)c1 | > 100 µM | > 100 µM | > 100 µM | > 100 µM | > 100 µM | – | – | – | – | – | – | –
